Results from ChEMBL document CHEMBL3046727, “Antifungal and insect antifeedant 2-phenylethanol esters from the liverwort Balantiopsis cancellata from Chile” (J Agric Food Chem, 2005).
Activity calls are given as the source filed them. The rule behind the calls is not given here.

What was measured:
Cladosporium herbarum [1] = test: Antifungal activity against Cladosporium herbarum assessed as growth inhibition at 23 degC measured after 72 hr; format: functional
Artemia salina = test: Toxicity in Artemia salina (brine shrimp) measured after 24 hr; format: organism-based; conditions: in vivo
Spodoptera littoralis = test: Feeding deterrence in Spodoptera littoralis in compound treated lettuce disk assessed as feeding ratio measured as area consumed of treated disks per area consumed of the control disk at 20 ug/disk by disk choice assay; format: functional
Cladosporium herbarum [2] = test: Antifungal activity against Cladosporium herbarum assessed as growth inhibition at 0.006 mg/mL at 23 degC measured after 72 hr; format: functional, organism-based

Row | Structure (SMILES) | MIC (Cladosporium herbarum [1]) | LC50 (Artemia salina) | Ratio (Spodoptera littoralis) | growth inhibition (GI) (Cladosporium herbarum [2])
1 | O=C(OC[C@H](O)c1ccccc1)c1ccccc1 | 0.05 mg | 7.4 ppm | 0.73 | –
2 | O=C(/C=C\c1ccccc1)OCCc1ccccc1 | – | < 2.5 ppm | 0.5 | –
3 | O=C1C2CC=CCC2C(=O)N1SC(Cl)(Cl)Cl (configuration not stated) [CAPTAN] | 0.02 mg | – | – | –
4 | CS/C=C/C(=O)OCCc1ccccc1 [ISOTACHIN B] | 0.006 mg | < 2.5 ppm | 0.44 | Active
5 | CC(=O)N1CCN(c2ccc(OCC3COC(Cn4ccnc4)(c4ccc(Cl)cc4Cl)O3)cc2)CC1 (configuration not stated) [KETOCONAZOLE] | 0.01 mg | – | – | –
6 | Cl[C@H]1[C@H](Cl)[C@@H](Cl)[C@@H](Cl)[C@H](Cl)[C@H]1Cl [LINDANE] | – | 7.2 ppm | – | –
7 | O=C(OCCc1ccccc1)c1ccccc1 [PHENETHYL BENZOATE] | 0.1 mg | < 2.5 ppm | 0.56 | –
8 | O=C(/C=C/c1ccccc1)OCCc1ccccc1 [PHENETHYL CINNAMATE] | – | < 2.5 ppm | 0.96 | –
